Assay results taken from PMC7457965 (Bioorganic & Medicinal Chemistry, 2020).
Read-outs that look alike come from different tables or passages of the source.

Experiments:
YFV (17D) = type: cell-based, Yellow Fever Virus; details: read-out: YFV EC50
DENV (New Guinea C) = type: cell-based, Dengue virus; details: read-out: DENV EC50: effective concentration showing 50% inhibition of virus-induced CPE
ZIKV (MR766) = type: cell-based, Zika virus; details: read-out: ZIKV EC50
ZIKV NS5-MTase = ZIKV NS5-MTase (Zika virus, UniProt A0A024B7W1); assay: radioactive filter-binding 2'-O-MTase assay, ZIKV; type: biochemical; details: 50 µM compound
Ebola (EBOV) virus [1] = details: cited from earlier work
human N7 (RNMT) MTase = human N7 (RNMT) MTase (Homo sapiens, UniProt O43148); type: biochemical; details: 50 µM
[2] = preliminary minimum tolerated dose; type: in vivo
DENV NS5-MTase = target: T1, DENV NS5-MTase (Dengue virus type 3, UniProt Q6YMS4); assay: radioactive filter-binding 2'-O-MTase assay, DENV; type: biochemical, DENV-3; details: 50 µM compound
T1 sequence (Q6YMS4 2492-2753 limits assumed): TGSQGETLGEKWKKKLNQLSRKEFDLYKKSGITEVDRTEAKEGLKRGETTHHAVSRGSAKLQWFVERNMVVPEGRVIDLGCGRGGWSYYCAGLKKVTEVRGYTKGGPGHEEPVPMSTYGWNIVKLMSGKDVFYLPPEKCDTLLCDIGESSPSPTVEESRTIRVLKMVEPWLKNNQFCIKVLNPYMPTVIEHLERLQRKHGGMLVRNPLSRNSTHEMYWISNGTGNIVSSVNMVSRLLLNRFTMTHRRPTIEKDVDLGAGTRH

SARS = details: read-out: activity against SARS; cited from earlier work
Ebola (EBOV) virus [3] = type: cell-based; details: read-out: EC50 against EBOV

Chain of ZIKV NS5-MTase (A0A024B7W1 2521-2785 limits assumed): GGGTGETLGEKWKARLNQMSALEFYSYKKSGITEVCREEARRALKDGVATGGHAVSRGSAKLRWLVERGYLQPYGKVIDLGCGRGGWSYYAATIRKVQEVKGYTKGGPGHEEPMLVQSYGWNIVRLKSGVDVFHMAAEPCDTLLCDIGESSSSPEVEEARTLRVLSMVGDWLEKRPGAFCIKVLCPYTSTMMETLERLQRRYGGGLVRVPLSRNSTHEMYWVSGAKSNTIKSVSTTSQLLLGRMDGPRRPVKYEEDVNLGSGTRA
Chain of human N7 (RNMT) MTase (O43148 whole entry): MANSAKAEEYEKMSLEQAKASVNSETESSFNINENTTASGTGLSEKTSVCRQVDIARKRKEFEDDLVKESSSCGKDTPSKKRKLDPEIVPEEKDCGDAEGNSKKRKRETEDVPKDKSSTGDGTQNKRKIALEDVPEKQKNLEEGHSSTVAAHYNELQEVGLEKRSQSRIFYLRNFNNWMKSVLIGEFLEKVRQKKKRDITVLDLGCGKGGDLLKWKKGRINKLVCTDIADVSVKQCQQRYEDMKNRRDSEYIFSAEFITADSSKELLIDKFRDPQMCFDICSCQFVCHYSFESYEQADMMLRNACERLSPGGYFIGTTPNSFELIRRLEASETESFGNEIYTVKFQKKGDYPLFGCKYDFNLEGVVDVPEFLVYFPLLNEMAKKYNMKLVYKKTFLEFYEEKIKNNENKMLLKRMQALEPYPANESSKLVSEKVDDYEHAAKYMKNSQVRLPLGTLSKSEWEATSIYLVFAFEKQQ

Substance	EC50 (YFV (17D)) [µM]	EC50 (DENV (New Guinea C)) [µM]	EC50 (ZIKV (MR766)) [µM]	Percent inhibition of ZIKV MTase (ZIKV NS5-MTase)	activity against Ebola (EBOV) virus (Ebola (EBOV) virus [1])	EC50 (Ebola (EBOV) virus [1]; read-out: EC50 against Ebola (EBOV) virus) [µM]	inhibition of human N7 MTase activity (human N7 (RNMT) MTase)	minimum tolerated dose (MTD) studies: no toxicity up to [2] [mgs/kg]	Percent inhibition of DENV MTase (DENV NS5-MTase)	EC50 (SARS) [µM]	EC50 (Ebola (EBOV) virus [3]) [µM]
2-((4-(2,4-dimethoxypyrimidine-5-yl)-1H-imidazol-1-yl) methoxy)ethan-1-ol [Compound 2]	> 58	> 50	> 76	–	–	–	–	–	–	–	–
2-((4-(2-amino-4-methoxypyrimidin-5-yl)-1H-imidazol-1-yl) methoxy)ethan-1-ol [Compound 1]	0.37	0.057	–	did not exhibit a significant inhibitory effect	active	2.2 ± 0.3	did not exhibit a significant inhibitory effect	≥ 250	did not exhibit a significant inhibitory effect	–	–
2-((4-(2-amino-4-methoxypyrimidin-5-yl)-1H-imidazol-1-yl)methoxy)ethyl acetate [Compound 1-Ac]	> 57	6.1	> 100	–	active	–	–	–	–	11.9	–
2-((4–2,4-dimethoxypyrimidin-5-yl)-1H-imidazol-1-yl)methoxy) ethyl acetate [Compound 2-Ac]	> 58	19	–	–	–	–	–	–	–	–	8.2 ± 1.8
2-ethylbutyl ((2-((4-(2,4-dimethoxypyrimidin-5-yl)-1H-imidazol-1-yl)methoxy)ethoxy)-(phenoxy)-phosphoryl)alaninate [Compound 2-MG]	> 53	> 53	> 56	–	–	–	–	–	–	–	–
2-ethylbutyl((2-((4-(2-amino-4-methoxypyrimidin-5-yl)-1H-imidazol-1-yl)methoxy)-ethoxy)-(phenoxy)phosphoryl)alaninate [Compound 1-MG]	> 55	> 57	> 31	–	active	–	–	–	–	–	–
